Assay results from patent US8222008B2, “Methods and compositions for treating cancer” (The Administrators of The Tulane Educational Fund, priority 2003, dated 2012).

Experiments:
kidney of black mice = assay: Kidney cystine concentration after CDME injection (CBP and BCA assays); format: in vivo, mouse
Description: Intracellular lysosomal free cystine was determined using a cystine binding protein (CBP) assay (Oshima et al, 1974 J. Biol. Chem., 249:6033-6039). CBP was procured from Riverside Scientific. The assay has a sensitivity of 0.1 μM. Total cell protein was determined by a modification of the Lowry method (Lowry O. et al 1951 J. Biol. Chem., 193:265-275). Statistical analyses were performed using paired t test for means with SSPS for Windows. Results are mean+/−1.0 SD (FIG. 3).
CDME was evaluated in mice for cystine generation in response to varying doses as follows: A stock solution of CDME in PBS was prepared having a concentrations of 1.8 g CDME/500 μL PBS. The stock solution was diluted to generate solutions for administration. 500 μL of diluted solutions were injected intraperitoneally into black mice (body mass ˜0.03 kg). All injections were performed in duplicate.
Following administration of the solutions of Table 6, the endogenous cystine concentrations in two organs (kidney and liver) were examined for the 6 mice, i.e., the CDME-injected mice as well as black, heterozygous, and wild-type control mice. The analysis was performed using the cystine binding protein CBP assay of Example 1 and the Bicinchoninic Acid BCA assay (Pierce Biotechnology) for total protein concentration.

MDA-MB-468 (ER−) = assay: Apoptosis in breast cancer cell lines, CaspACE assay with flow cytometry; format: cell-based, human; settings: CDME 500 μM, 16 hours
Excerpt: (§1) The apoptotic effect of CDME was compared to that of tamoxifen using the CaspACE™ assay system (Promega) and conventional flow cytometry techniques.
(§2) All cell lines were obtained from the American Type Culture Collection, P.O. Box 1549, Manassas, Va., 20108 unless otherwise indicated. The cell lines studied were estrogen receptor-negative breast cancer cell lines MDA-MB-231 (ATCC Accession No. HTB-26) and MDA-MB-468 (ATCC Accession No. HTB-132) and estrogen receptor-positive breast cancer cell lines, MCF-7 (ATCC Accession No. HTB-22) and T-47D (ATCC Accession No. HTB-133).
(§3) All cell lines were grown on the bottom of 12-well flasks in Gibco RPMI-1640, until they reached the confluency of about 50%. After that, the medium was exchanged with DMEM (Sigma, D-5030), supplemented with 10% charcoal-treated FBS.
(§4) After four days (at confluency of about 75%), cells were treated by exposure to either CDME (500 μM) or tamoxifen (100 μM) or neither for 16 hours at 37° C. CaspACE™ assay analysis of the treated and control cells was performed as described in Example 2 and measured via flow cytometry. Note that the dosage of tamoxifen was a maximum positive control dose, higher than that normally administered for chemotherapy.

MCF-7 (ER+) = assay: as above; format: cell-based, human; settings: CDME 500 μM, 16 hours
Excerpt: as §1, §2, §3, §4

T-47D (ER+) = assay: as above; format: cell-based, human; settings: CDME 500 μM, 16 hours
Excerpt: as §1, §2, §3, §4

MDA-MB-231 (ER−) = assay: as above; format: cell-based, human; settings: CDME 500 μM, 16 hours
Excerpt: as §1, §2, §3, §4

COC(=O)[C@@H](N)CSSC[C@H](N)C(=O)OC [CDME, cystine dimethyl ester]
Kidney Cystine Concentration (kidney of black mice; 10,000 mg CDME/kg intraperitoneally, Mouse #3): 97 nmol cystine/mg protein | increase in intralysosomal cystine (kidney of black mice; CDME-injected mice versus controls): ~100 fold | percent of apoptotic cells (±S.D.) (MDA-MB-468 (ER−)): 44.88 ± 13.52% | percent of apoptotic cells (±S.D.) (MCF-7 (ER+)): 6.16 ± 1.80% | percent of apoptotic cells (±S.D.) (T-47D (ER+)): 7.78 ± 4.19% | percent of apoptotic cells (±S.D.) (MDA-MB-231 (ER−)): 99.32 ± 0.22%
